Results published in patent US6525065B1, “Pharmaceutical compositions and methods for effecting dopamine release” (priority 1997, dated 2003).
Counter-ions that a name gives are not always drawn. Like-named read-outs stand apart in the source and are kept apart here.

Tests used:
dopamine release = assay: cells; assay type: cell-based; conditions: for EC50: read-out: Dopamine Release EC50; for Dopamine Release Ecmax: amount released relative to (S)-(-)-nicotine on a percentage basis
[1] = biological target: T1, muscle-type nicotinic acetylcholine receptors (Homo sapiens, UniProt P02708+P07510+Q07001); assay: cell-based
T1 construct: endogenous in cells; host or cells: TE671/RD (own knowledge of the cited US 5,597,919)
T1 sequence (P02708 21-457): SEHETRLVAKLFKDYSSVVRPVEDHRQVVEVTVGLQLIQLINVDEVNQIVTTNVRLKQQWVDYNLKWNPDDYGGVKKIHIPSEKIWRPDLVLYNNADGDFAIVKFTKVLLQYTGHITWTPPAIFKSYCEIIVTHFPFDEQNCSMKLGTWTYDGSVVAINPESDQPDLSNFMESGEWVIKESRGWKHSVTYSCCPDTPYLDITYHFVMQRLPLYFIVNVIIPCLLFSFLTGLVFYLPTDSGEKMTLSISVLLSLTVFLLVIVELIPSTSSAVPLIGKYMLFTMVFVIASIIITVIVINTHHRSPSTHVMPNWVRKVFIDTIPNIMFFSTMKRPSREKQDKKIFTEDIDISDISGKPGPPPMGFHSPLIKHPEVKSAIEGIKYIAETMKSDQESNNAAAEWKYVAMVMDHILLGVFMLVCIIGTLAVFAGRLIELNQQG
T1 sequence (P11230 24-501 partner): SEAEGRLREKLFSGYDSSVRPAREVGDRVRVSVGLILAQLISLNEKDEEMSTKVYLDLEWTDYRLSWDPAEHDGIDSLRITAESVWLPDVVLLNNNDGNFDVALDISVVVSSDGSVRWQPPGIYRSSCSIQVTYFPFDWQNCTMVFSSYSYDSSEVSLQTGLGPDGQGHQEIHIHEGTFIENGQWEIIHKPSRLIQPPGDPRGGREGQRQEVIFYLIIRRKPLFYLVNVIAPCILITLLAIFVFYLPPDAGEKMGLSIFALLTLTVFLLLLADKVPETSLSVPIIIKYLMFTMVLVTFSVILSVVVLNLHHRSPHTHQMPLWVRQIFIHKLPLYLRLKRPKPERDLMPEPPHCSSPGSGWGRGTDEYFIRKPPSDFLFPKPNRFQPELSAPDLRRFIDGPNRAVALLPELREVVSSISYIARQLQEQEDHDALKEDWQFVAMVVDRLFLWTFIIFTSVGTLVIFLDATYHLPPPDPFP
T1 sequence (Q07001 22-517): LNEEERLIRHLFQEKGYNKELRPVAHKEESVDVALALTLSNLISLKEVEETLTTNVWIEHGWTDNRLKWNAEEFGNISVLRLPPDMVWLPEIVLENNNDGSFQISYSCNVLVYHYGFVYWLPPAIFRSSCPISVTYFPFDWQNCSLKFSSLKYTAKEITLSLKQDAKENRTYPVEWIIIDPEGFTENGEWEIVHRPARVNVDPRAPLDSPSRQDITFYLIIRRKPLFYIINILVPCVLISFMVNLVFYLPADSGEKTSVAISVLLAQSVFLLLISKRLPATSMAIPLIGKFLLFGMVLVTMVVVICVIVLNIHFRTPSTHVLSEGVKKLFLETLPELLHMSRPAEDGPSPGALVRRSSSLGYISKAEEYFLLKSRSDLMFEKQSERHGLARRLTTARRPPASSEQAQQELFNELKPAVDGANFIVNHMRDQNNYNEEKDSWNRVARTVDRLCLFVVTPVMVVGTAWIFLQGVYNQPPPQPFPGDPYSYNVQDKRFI
T1 sequence (P07510 23-517): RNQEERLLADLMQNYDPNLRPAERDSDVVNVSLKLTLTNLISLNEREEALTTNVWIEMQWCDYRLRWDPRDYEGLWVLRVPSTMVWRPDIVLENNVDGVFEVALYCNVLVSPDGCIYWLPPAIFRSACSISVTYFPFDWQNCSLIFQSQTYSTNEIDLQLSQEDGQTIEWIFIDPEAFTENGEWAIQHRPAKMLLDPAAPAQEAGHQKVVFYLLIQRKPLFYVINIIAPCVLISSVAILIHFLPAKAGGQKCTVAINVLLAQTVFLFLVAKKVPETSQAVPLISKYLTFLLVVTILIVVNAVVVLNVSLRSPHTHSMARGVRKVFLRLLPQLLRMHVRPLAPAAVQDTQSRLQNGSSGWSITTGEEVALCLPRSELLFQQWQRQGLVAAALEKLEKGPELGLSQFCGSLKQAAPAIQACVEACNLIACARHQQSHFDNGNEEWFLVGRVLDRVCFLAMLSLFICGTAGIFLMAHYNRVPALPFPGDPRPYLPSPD

[2] = biological target: ganglionic-type nicotinic acetylcholine receptors (Rattus norvegicus, UniProt P04757+P12392); assay: cell-based; conditions: read-out: Ganglion Effect Ecmax
ganglionic-type nicotinic acetylcholine receptors, sequence (P04757 26-499): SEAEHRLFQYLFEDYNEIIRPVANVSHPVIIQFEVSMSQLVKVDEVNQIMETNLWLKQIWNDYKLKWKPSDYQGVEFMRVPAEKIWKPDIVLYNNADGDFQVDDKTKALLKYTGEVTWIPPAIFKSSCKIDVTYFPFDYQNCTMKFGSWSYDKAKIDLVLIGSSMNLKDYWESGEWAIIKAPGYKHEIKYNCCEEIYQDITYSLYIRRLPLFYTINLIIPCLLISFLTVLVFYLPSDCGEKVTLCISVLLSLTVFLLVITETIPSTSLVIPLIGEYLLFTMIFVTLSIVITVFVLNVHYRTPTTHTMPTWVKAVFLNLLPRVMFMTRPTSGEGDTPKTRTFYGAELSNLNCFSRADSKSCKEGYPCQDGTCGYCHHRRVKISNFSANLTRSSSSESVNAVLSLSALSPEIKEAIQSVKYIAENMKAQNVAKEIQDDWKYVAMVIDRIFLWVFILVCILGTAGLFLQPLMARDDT
ganglionic-type nicotinic acetylcholine receptors, sequence (P12392 21-495): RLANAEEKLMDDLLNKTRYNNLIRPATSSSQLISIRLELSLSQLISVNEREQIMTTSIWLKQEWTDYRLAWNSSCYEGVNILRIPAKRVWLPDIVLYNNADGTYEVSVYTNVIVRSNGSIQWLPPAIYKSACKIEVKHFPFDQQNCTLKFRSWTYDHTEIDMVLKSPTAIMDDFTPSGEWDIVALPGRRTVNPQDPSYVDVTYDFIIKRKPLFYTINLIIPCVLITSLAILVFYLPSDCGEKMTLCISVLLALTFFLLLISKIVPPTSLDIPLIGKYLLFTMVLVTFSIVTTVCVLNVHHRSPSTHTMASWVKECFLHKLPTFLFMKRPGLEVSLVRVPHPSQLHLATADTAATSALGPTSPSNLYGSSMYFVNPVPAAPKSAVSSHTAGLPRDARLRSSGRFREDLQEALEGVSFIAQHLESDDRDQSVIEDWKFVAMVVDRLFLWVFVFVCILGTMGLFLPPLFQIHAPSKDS

[3] = read-out: Dopamine Release Ecmax
[4] = read-out: Dopamine Release Ecmax, amount released relative to (S)-(-)-nicotine on a percentage basis
[5] = maximal activation as percentage of that induced by (S)-(-)-nicotine

Row | SMILES | EC50 (dopamine release) [nM] | Emax (dopamine release; [3]) [%] | EC50 [1] [nM] | Muscle Effect Ecmax [1] [%] | Emax (dopamine release; [4]) [%] | Muscle Effect Ecmax [1, 5] [%] | Emax [2] [%] | Dopamine Release Ecmax (dopamine release) [%] | EC50 ([1]; read-out: Muscle Effect EC50) [nM] | amounts causing muscle effects and effects upon ganglia relative to those required to cause dopamine release (dopamine release; selectivity of dopamine release over muscle and ganglion effects) | Emax [2, 5] [%]
1 | CN1CCC[C@H]1c1cccnc1 [Sample No. C-1, (S)-(−)-nicotine, reference compound] | 115 | 100 | 60000 | 100 |  |  |  |  |  |  | 
2 | c1cncc([C@H]2C[C@@H]3CCN2C3)c1 (relative stereo) [Sample No. 3, exo 1-aza-2-(3-pyridyl)bicyclo[2.2.1]heptane] | 6 |  | 100 |  | 130 | 130 | 100 |  |  |  | 
3 | Brc1cncc(C2CC3CCN2CC3)c1 (racemic) [Sample No. 2] | 2 |  |  |  |  | 133 | 106 | 43 |  |  | 
4 | c1cncc(C2C3CCN2CC3)c1 (stereo not drawn) [Sample No. 5, 1-aza-7-(3-pyridyl)bicyclo[2.2.1]heptane] | 4 |  | 300 |  | 93 | 130 | 120 |  |  |  | 
5 | c1cncc([C@@H]2C[C@@H]3CCN2C3)c1 (relative stereo) [Sample No. 4, endo-1-aza-2-(3-pyridyl)bicyclo[2.2.1]heptane] | 33 |  |  |  |  | 130 |  | 114 | 100 |  | 
6 | Nc1cncc(C2CC3CCN2CC3)c1 (stereo not drawn) [Sample No. 6, 5-(1-azabicyclo[2.2.2]oct-2-yl-3-(amino)pyridinetrihydrochloride] | 7 |  |  |  |  | 100 |  | 43 | 3000 | many times | 75
7 | CCOc1cncc(C2CC3CCN2CC3)c1.Cl.Cl (stereo not drawn) [Sample No. 7, 5-(1-azabicyclo[2.2.2]oct-2-yl)-3-(ethoxy)pyridine dihydrochloride] | 5 |  | 700 |  | 40 | 137 | 86 |  |  |  | 
8 | c1cncc(C2CC3CCN2CC3)c1 (racemic) [Sample No. 1, (+/−)-1-aza-2-(3-pyridyl)bicyclo[2.2.2]octane] | 2 | 40 |  | 110 |  |  | 85 |  |  |  | 
9 | CC(C)Oc1cncc(C2CC3CCN2CC3)c1 (stereo not drawn) [Sample No. 8, 5-(1-azabicyclo[2.2.2]oct-2-yl-3-(isopropyloxy)pyridinedihydrochloride] |  |  |  |  |  |  | 94 |  | 3000 |  | 
